One compound from ChEMBL document CHEMBL4732134, “Identification of N-phenyl-3-methoxy-4-pyridinones as orally bioavailable H receptor antagonists and β-amyloid aggregation inhibitors for the treatment of Alzheimer's disease” (Eur J Med Chem, 2021) can be followed below.

SMILES strings stand for the structures.

Series [1] has as its target Histamine H1 receptor (Homo sapiens, UniProt P35367). In words: Antagonist activity at human histamine H1 receptor expressed in HEK293 cells preincubated for 5 mins followed by forskolin-stimulation and measured after 5 hrs by CRE-driven luciferase reporter gene assay. It counts as functional, cell-based.
Series [2] concerns the target Histamine H4 receptor (Homo sapiens, UniProt Q9H3N8). In words: Antagonist activity at human histamine H4 receptor expressed in HEK293 cells preincubated for 5 mins followed by forskolin-stimulation and measured after 5 hrs by CRE-driven luciferase reporter gene assay. It counts as functional, cell-based. For orientation: Reporter assays use an easily measured gene product as a stand-in for the process of interest.

In series [3] the target is Histamine H2 receptor (Homo sapiens, UniProt P25021). The series can be described thus: Antagonist activity at human histamine H2 receptor expressed in HEK293 cells preincubated for 5 mins followed by forskolin-stimulation and measured after 5 hrs by CRE-driven luciferase reporter gene assay. Type of series: functional, cell-based.
Series [4] addresses hERG (KCNH2) (Homo sapiens, UniProt Q12809). In words: Inhibition of human ERG at 3 uM by patch clamp method relative to control. In general terms: Patch clamp records ionic current or voltage across a cell membrane.

Histamine H1 receptor, sequence (P35367 whole entry): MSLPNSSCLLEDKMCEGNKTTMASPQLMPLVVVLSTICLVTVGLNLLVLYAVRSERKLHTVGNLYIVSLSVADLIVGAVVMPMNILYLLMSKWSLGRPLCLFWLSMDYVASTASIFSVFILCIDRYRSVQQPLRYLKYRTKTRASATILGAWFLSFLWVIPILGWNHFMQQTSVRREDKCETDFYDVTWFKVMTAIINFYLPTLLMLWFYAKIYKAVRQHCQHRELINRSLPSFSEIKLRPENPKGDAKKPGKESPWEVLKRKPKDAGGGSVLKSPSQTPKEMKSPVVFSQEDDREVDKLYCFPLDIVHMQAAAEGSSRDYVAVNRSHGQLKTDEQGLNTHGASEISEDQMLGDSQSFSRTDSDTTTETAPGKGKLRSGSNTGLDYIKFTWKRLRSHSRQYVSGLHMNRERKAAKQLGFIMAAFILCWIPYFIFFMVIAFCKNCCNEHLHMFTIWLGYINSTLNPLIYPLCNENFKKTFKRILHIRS
Histamine H2 receptor, sequence (P25021 whole entry): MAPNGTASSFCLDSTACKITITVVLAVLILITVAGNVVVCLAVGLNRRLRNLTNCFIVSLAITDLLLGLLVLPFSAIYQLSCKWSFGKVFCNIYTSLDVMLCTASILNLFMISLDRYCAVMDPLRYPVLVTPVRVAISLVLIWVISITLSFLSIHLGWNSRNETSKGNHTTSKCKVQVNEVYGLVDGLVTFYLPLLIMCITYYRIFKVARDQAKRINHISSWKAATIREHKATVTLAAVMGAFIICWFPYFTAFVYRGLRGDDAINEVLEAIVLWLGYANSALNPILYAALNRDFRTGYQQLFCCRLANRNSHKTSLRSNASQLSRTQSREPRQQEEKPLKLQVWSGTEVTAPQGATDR
hERG (KCNH2), sequence (Q12809 whole entry): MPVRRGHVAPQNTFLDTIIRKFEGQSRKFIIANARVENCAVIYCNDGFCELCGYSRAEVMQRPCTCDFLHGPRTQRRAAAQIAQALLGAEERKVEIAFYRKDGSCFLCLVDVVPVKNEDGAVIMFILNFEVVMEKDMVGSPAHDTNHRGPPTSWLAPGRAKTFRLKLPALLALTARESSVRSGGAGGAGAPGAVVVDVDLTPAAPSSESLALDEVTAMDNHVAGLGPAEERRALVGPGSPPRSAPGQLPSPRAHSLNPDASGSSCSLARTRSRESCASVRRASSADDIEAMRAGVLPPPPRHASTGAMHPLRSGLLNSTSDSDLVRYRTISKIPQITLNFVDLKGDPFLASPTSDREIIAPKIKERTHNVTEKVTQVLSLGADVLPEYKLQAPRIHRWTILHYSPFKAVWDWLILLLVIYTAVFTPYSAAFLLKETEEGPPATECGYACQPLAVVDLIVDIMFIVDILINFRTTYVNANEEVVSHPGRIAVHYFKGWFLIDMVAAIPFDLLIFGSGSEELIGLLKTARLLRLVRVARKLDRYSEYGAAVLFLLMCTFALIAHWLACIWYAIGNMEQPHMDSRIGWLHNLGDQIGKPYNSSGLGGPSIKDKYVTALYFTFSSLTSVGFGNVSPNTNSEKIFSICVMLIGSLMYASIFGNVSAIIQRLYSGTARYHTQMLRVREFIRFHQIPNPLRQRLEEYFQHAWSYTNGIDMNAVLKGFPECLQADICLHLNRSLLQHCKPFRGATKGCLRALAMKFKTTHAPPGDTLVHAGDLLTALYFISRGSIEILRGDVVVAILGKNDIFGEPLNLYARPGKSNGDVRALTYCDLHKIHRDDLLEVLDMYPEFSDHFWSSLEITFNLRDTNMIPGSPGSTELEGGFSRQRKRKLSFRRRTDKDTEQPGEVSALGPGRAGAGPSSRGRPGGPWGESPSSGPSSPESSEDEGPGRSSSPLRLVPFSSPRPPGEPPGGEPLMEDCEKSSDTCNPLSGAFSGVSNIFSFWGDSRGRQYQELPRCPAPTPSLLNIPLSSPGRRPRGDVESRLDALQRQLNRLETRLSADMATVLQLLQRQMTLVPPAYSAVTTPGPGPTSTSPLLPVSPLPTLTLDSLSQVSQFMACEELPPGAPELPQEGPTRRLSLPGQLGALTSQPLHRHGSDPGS
Histamine H4 receptor, sequence (Q9H3N8 whole entry): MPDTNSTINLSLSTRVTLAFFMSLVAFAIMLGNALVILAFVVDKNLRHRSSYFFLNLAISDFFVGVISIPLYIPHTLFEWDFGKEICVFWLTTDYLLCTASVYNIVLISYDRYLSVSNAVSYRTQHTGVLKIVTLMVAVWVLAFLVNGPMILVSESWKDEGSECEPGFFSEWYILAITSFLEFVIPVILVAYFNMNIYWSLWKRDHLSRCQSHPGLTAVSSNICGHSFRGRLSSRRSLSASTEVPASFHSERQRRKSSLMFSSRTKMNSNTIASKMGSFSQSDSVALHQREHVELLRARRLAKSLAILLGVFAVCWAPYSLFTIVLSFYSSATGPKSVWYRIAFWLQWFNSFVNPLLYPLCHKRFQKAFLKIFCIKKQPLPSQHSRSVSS

`COc1cn(-c2ccc(OCCCN3CCCC3)cc2)ccc1=O`: the IC50 in series [1], in series [2] and in series [3] was greater than 10 µM throughout. In series [4], testing at 3 µM gave an inhibition of 6.3%.
